In patent publication US8193377B2, “(−)-epigallocatechin gallate derivatives for inhibiting proteasome” (The Hong Kong Polytechnic University, priority 2004, dated 2012):

Key:
[1] = target: T1, purified rabbit 20s proteasome (Oryctolagus cuniculus, UniProt G1T4Q9); assay: Inhibition of chymotrypsin-like activity of purified 20S proteasome; format: biochemical; details: up to 25 μM, 30 min incubation; read-out: IC50
T1 construct: purchased Boston Biochem (Cambridge, Mass.)
T1 sequence (G1T4Q9 1-263): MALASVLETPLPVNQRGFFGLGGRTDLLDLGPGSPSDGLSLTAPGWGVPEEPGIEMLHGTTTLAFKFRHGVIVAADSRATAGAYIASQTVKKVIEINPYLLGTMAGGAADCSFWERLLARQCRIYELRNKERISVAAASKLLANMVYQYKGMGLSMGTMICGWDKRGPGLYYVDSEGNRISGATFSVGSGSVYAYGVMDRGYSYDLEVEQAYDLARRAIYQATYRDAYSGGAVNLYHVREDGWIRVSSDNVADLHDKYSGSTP
Procedure: Measurement of the chyrnotrypsin-like activity of the 20s proteasome was performed by incubating 0.5 μg of purified rabbit 20s proteasome with 40 μM fluorogenic peptide substrate, Suc-Leu-Leu-Val-Tyr-AMC, with or without various concentrations of natural and synthetic tea polyphenols as described previously (Nam S et. al.).
In order to test this hypothesis, proteasome activity was tested both in vitro and in intact Jurkat T cells with either 1 or (−)-EGCG (as a positive control). First, 1 and commercial (−)-EGCG were dissolved in DMSO and their effects on the chymotrypsin-like activity of purified 20S proteasomes were measured. […] In contrast, (−)-EGCG at 10 μM inhibited 80-90% of the proteasomal chymotrypsin-like activity. Therefore, as predicted, 1 outside of a cellular system is not a proteasome inhibitor.
Up to 25 μM of all protected and unprotected compounds were incubated with a purified 20s proteasome and a fluorogenic substrate for chyrnotrypsin activity for 30 min. The half-maximal inhibitory concentration or IC50 was then determined. […] This is consistent with the results above.

VA-13 cells [2] = assay: Immunostaining of apoptotic cells with anti-cleaved PARP-FITC; format: cell-based, human; details: 25 μM, 24 h
Procedure: Immunostaining of apoptotic cells was performed by addition of a FITC-conjugated polyclonal antibody that recognizes cleaved poly(ADP-ribose) polymerase (PARP) and visualized on an Axiovert 2 5 (Zeiss; Thornwood, N.Y.) microscope. Cells were grown to about 80% confluency in 60 mm dishes. VA-13 cells were then treated with VP-16, 2, or 2a (25 μM) for 24 h. Following treatment, both suspension and adhering cells were collected and washed twice in PBS pH 7.4. The cells were washed between all steps listed below and all washes are 1 min duration with PBS. Cells were then fixed in ice-cold 70% ethanol, permeabilized in 0.1% Triton-X-100 and blocked for 30 min in 1% bovine serum albumin (BSA) at room temperature. Incubation with the primary FITC-conjugated-p85/PARP antibody was for 30 min at 4° C. in the dark with mild shaking. Cell suspension was then transferred to glass slides in the presence of Vector Shield mounting medium with DAPI. Images were captured using AxioVision 4.1 and adjusted using Adobe Photoshop 6.0 software. Cell death was quantified by counting the number of apoptotic cells over the total number of cells in the same field. Data are mean of duplicate experiments ±SD.
(§1) It has been shown that proteasome inhibition can induce apoptosis in a wide variety of cancer cells, but not in normal, non-transformed cells (An B et al). Jurkat T cells are treated with 25 μM of each of the selected polyphenols and their protected analogs for 24 h to investigate their abilities to induce apoptotic cell death. […] The unprotected 2 induced much less apoptosis (21%), while 25 μM VP-16, used as a positive control, induced 92% apoptosis (FIGS. 10C and 10D). Counterstain with DAPI, which binds to the minor groove in A-T rich regions of DNA, was decreased drastically in apoptotic cells (FIG. 10C), consistent with DNA fragmentation in late stage apoptosis.

VA-13 cells [3] = assay: Nuclear staining (Hoechst) for apoptotic morphology, VA-13; format: cell-based, human; details: 25 μM, 24 h
Procedure: After each drug treatment, both detached and attached VA-13 and WI-38 cells were stained Hoechst 33342 to assess for apoptosis. Briefly, cells were washed 2× in PBS, fixed for 1 h with 70% ethanol at 4° C., washed 3× in PBS, and stained with […] Hoechst for 30 min in the dark at room temperature. Detached cells were plated on a slide and attached cells were visualized on the plate with a fluorescent microscope at 10× or 40× resolution (Zeiss, Germany). Digital Scientific obtained images with AxioVision 4.1 and adjusted using Adobe Photoshop 6.0.
Next, apoptotic nuclear morphology is examined after treatment with natural (−)-EGCG, 2, and 2a (FIG. 12B). […] A comparison among all the protected analogs was then performed using 25 μM for 24 h. […] All of the protected analogs induced apoptosis in transformed (VA-13), but not normal (WI-38) cells (FIGS. 12B and 12C).

[4] = test system: ubiquitinated proteins, Bax, p27, IκBα in Jurkat T cells; assay: Western blot for ubiquitinated proteins and proteasome targets (Bax, p27, IκBα) in Jurkat T cells; format: cell-based, human; details: 25 μM
Procedure: (§2) Whole cells extracts were prepared as described previously (An B, Goldfarb R H, Siman R, Dou Q P. Novel dipeptidyl proteasome inhibitors overcome Bc1-2 protective function and selectively accumulate the cyclin-dependent kinase inhibitor p27 and induce apoptosis in transformed, but not normal, human fibroblasts. Cell Death Differ 1998; 5: 1062-75.). Analysis of Bax, IKBa, p27, PAW, and ubiquitinated protein expression were performed using monoclonal or polyclonal antibodies according to previously reported protocols (An B et. al.).
To determine what effects the synthetic tea analogs had on the proteasome in vivo, Jurkat cells were treated with 25 μM of each synthetic compound for either 4 or 24 h, with (−)-EGCG as a control (FIGS. 9A and 9B). […] This is consistent with the idea that protected analogs are potent inhibitors of the proteasome at an earlier time point and that after 24 h of treatment the ubiquitinated proteins are being depleted by deubiquitinating enzymes. […] The putative ubiquitinated IκBα band is still found in cells treated with 2a, 3a, and 4a (FIG. 9B, Lanes 9, 5, 7). The presumed ubiquinated IκBα band is now absent in the 24 h treatment, possibly due to deubiquitination (FIG. 9B). Actin was used as a loading control in this experiment.
The pro-apoptotic protein Bax and the cyclin-dependent kinase inhibitor p27 are natural proteasome targets. If the peracetate-protected polyphenols inhibit the intact proteasome activity, we would expect accumulation of Bax and p27 in these cells. To test this idea, Jurkat T cells were treated with both protected and unprotected compounds and lysates were analyzed by Western blot using specific antibodies to Bax and p27 (FIG. 15). After 4 h of treatment, the peracetate-protected analogs 24* and 19*, but not their unprotected analogs, were able to increase accumulation of both Bax (by 3- and 2.5-fold, respectively) and p27 (6- and 11-fold, respectively) (FIG. 15A). After 24 h treatment, Bax levels were increased in cells treated with all of the peracetate-protected compounds (13-, 12-, 40- and 36-fold, respectively, by 24*, 19*, 21* and 23*).

Jurkat T cells [5] = assay: Trypan blue cell death assay in Jurkat T cells; format: cell-based, human; details: 25 μM, 24 h
Jurkat T cells [6] = assay: Western blot for PARP cleavage in Jurkat T cells; format: cell-based, human; details: 25 μM, 24 h
Procedure: as §2, §1
To determine if the cell death observed (FIG. 16) was due to the induction of apoptosis, a similar experiment was performed in Jurkat T cells, followed by measurement of caspase-3 activation and PARP cleavage.

MCF-7 cells = assay: MTT assay; format: cell-based, human; details: 24 h
Procedure: MTT was used to determine effects of polyphenols on overall proliferation of tumor cells. Human breast MCF-7 cells were plated in a 96 well plate and grown to 70-80% confluency, followed by addition of analogs for 24 h. MTT (1 mg/ml) in PBS was then added to wells and incubated at 37° C. for 4 hours to allow for complete cleavage of the tetrazolium salt by metabolically active cells. Next, the MTT was removed and 100 μl of DMSO was added and colorimetric analysis performed using a multilabel plate reader at 560 nm (Victor^3; Perkin Elmer). Absorbance values plotted are the mean from triplicate experiments.
Treated breast cancer (MCF-7) cells were then treated with 5 or 25 μM of peracetate-protected analogs for 24 h, followed by MTT analysis to determine their effects on cell proliferation. Compound 1 at 25 μM inhibited cellular proliferation by 40% (FIG. 11A).

LNCaP cells [7] = assay: Apoptotic morphological changes, phase contrast; format: cell-based, human; details: 25 μM, 24 h
LNCaP cells [8] = assay: Soft agar colony formation assay; format: cell-based, human; details: 25 μM once at plating, 21 days

| Compound | IC50 [1] [µM] | apoptotic cells (p85 cleaved PARP) (VA-13 cells [2]) [%] | apoptotic nuclear morphology (VA-13 cells [3]) | accumulation of p27 ([4]; 24 h) | time course of ubiquitinated protein accumulation ([4]; up to 8 h) | cell death (trypan blue) (Jurkat T cells [5]) [%] | apoptosis-specific PARP cleavage (Jurkat T cells [6]) | inhibition of cellular proliferation (MCF-7 cells; 5 μM) [%] | inhibition of cellular proliferation (MCF-7 cells; 25 μM) [%] | apoptotic morphological changes (LNCaP cells [7]) | colony formation in soft agar (LNCaP cells [8]) |
| --- | --- | --- | --- | --- | --- | --- | --- | --- | --- | --- | --- |
| O=C(O[C@@H]1Cc2c(O)cc(O)cc2O[C@H]1c1cc(O)c(O)c(O)c1)c1cccc(O)c1 (relative stereo) [Compound 2, (2S*,3R*)-trans-5,7-Bis(hydroxy)-2-[3,4,5-tris(hydroxy)phenyl]chroman-3-yl 3-(hydroxy)benzoate] | ~9.9 | 21 | little or no apoptosis |  |  |  |  |  |  |  |  |
| CC(=O)Oc1cc(OC(C)=O)cc(C(=O)O[C@@H]2Cc3c(OC(C)=O)cc(OC(C)=O)cc3O[C@H]2c2cc(OC(C)=O)c(OC(C)=O)c(OC(C)=O)c2)c1 (relative stereo) [Compound 4a, (2S*,3R*)-trans-5,7-Bis(acetyloxy)-2-[3,4,5-tris(acetyloxy)phenyl]chroman-3-yl 3,5-bis(acetyloxy)benzoate] |  |  |  | Accumulation of p27 | as early as 2 h and lasting up to 8 h | 83 | induced apoptosis-specific PARP cleavage | 50 | 70 | dramatic round-up, detachment, and cellular fragmentation | most potent inhibitors of colony formation |
| COc1cc([C@@H]2c3cc4c(cc3[C@@H](O[C@@H]3O[C@@H]5CO[C@@H](C)O[C@H]5[C@H](O)[C@H]3O)[C@H]3COC(=O)[C@H]23)OCO4)cc(OC)c1O [VP-16, reference compound] |  | 92 |  |  |  |  |  |  |  |  |  |
